Test results reported in US20220025061A1, “COMBINATION THERAPIES FOR TREATING DISEASE USING AN INNATE IMMUNITY MODIFIER AND AN OX40 AGONIST” (BioXcel Therapeutics, Inc., priority 2018, published 2022).

Key:
[1] = system: pro-inflammatory cytokines and chemokines, including IL-18; test: Cytokines and chemokines in the serum of treated animals; assay type: in vivo, mice; settings: serum of animals treated with talabostat mesylate alone; data not shown
Experimental: Various cytokines and chemokines in the serum of animals treated with talabostat mesylate alone was also evaluated. […] IL-18 bridges the innate and adaptive immune systems through induction of IFNγ and OX40 (CD134) signaling pathway (Maxwell et al., Journal of Immunology, 2006, 177:234).

MC38 cells = test: MC38 mouse model of colon adenocarcinoma: tumor volume and survival; assay type: in vivo; settings: MC38 tumor-bearing C57BL/6 mice
Experimental: Animals: Six to ten week-old female C57BL/6 mice were used in the studies as supplied by Beijing Vital River Laboratory Animal Technology Co., Ltd. Mice received food and water ad libitum. All animals were maintained in a controlled environment with 20-26° C. temperature, 40-70% humidity, and a light/dark cycle of 12 hours each. Up to 5 mice were kept in each cage. The study protocol and procedures involving the care and use of animals were reviewed and approved by the Institutional Animal Care and Use Committee (IACUC) to ensure compliance with the regulations of the Association for Assessment and Accreditation of Laboratory Animal Care (AAALAC).
Reagents and Antibodies: Anti-mouse PD-1 antibody (BioXcell; Lot No./Cat. No./clone: 665418F1/BP0146/RMP1-14) was supplied at a concentration of 7.83 mg/mL and maintained at 4° C. […]
Tumor volumes were measured on Day 10, Day 14, Day 17, Day 21, Day 23, Day 25, Day 28, Day 30, Day 32, Day 35, Day 37, Day 39, Day 42, Day 44, Day 46, Day 49 and Day 51 in two dimensions using a caliper, and the volume was expressed in mm^3 using the formula: V=0.5 a×b^2 where a and b are the length and width of the tumor, respectively.
Statistical Analysis: Data related to tumor volume are presented as mean and the standard error of the mean (SEM). […] Percentage tumor reduction was assessed on Day 23 by using the below formula: […]

talabostat mesylate was tested, and the “pro-inflammatory cytokines and chemokines in serum, including IL-18” value [1] was “stimulated”, the median survival (MC38 cells; same dosing as Table 4, vehicle control median survival 30 days) was 35 days and the “% Tumor Reduction compared to vehicle control on Day 23” value (MC38 cells; talabostat mesylate 20 μg/mouse p.o. QD, anti-OX40 Ab 10 mg/kg i.p. twice weekly, anti-PD-1 Ab 5 mg/kg i.p. twice weekly, treatment from Day 11, Day 23) was 8.16%.
